In general, TGI refers to the concentration giving total growth inhibition. A high value points to less potent growth arrest. For orientation: GI50 means the concentration that inhibits growth by half.

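Assay format: 96-well plates, 48-hour exposure. GI50 = concentration required for 50% inhibition of growth. TGI marks complete inhibition of growth.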

Some test systems named below: SF-295 CNS; HCT-15 colon; IGROV1 ovarian; OVCAR-8 ovarian; U251 CNS; MALME-3M melanoma; TK-10 renal; SK-MEL-5 melanoma; K-562 leukemia.
Common to all, as to experiment: DTP human tumour cell line panel, 48 h

`O=C(O)c1ccc([Se][Se]c2ccc(C(=O)O)cc2)cc1`: the TGI in the experiment on SF-295 CNS is 54.7 µM; with HCT-15 colon it was above 100 µM; in the experiment with IGROV1 ovarian it was 71.1 µM; with OVCAR-8 ovarian it was 70.8 µM; in the experiment on U251 CNS it was 49.6 µM; in the experiment with MALME-3M melanoma it was 68.3 µM. In the experiment on TK-10 renal, this compound came in with a total growth inhibition concentration (TGI) of 54.1 µM.
With `Cc1cc(N(CCC#N)S(=O)(=O)c2ccccc2)ccc1/C=C1N=C(/C=C/c2ccccc2)OC\1=O`, the TGI in the experiment with SF-295 CNS, in the experiment with HCT-15 colon, in the experiment with IGROV1 ovarian, in the experiment with OVCAR-8 ovarian, in the experiment with U251 CNS and in the experiment with SK-MEL-5 melanoma was above 100 µM throughout. Also, the TGI with MALME-3M melanoma, with TK-10 renal and in the experiment on K-562 leukemia was above 100 µM throughout.
Turning to `CC1SC(c2c(Cl)cccc2Cl)N(NC(=O)c2[nH]c3ccc(F)cc3c2-c2ccccc2)C1=O` (centres undefined), the GI50 is 1.9 µM with SF-295 CNS; 3.73 µM in the experiment on HCT-15 colon; 2.37 µM in the experiment with IGROV1 ovarian; 1.7 µM in the experiment with OVCAR-8 ovarian; 1.78 µM in the experiment with U251 CNS; 2.72 µM in the experiment on SK-MEL-5 melanoma. The GI50 in the experiment on MALME-3M melanoma is 1.43 µM; with TK-10 renal it was 2.56 µM; with K-562 leukemia, 21.9 µM. The total growth inhibition concentration (TGI) in the experiment with SF-295 CNS came out at 3.71 µM; in the experiment with HCT-15 colon, 22.2 µM; with IGROV1 ovarian it was 7.9 µM; in the experiment with OVCAR-8 ovarian, 3.39 µM; with U251 CNS, 3.51 µM; in the experiment on SK-MEL-5 melanoma it was 11.9 µM. Also, the results for the TGI with MALME-3M melanoma, with TK-10 renal and in the experiment on K-562 leukemia were 4.35 µM, 7.12 µM and above 100 µM, respectively.
Turning to `N#Cc1cnc2cc(OC[C@H](O)CO)c(NC(=O)CC3CSSC3)cc2c1Nc1ccc(OCc2cccc(F)c2)c(Cl)c1`, the GI50 was 0.83 µM in the experiment on SF-295 CNS; 3.96 µM in the experiment on HCT-15 colon; 0.446 µM in the experiment on IGROV1 ovarian; 1.02 µM in the experiment on OVCAR-8 ovarian; 0.465 µM with U251 CNS; 0.841 µM with SK-MEL-5 melanoma. The GI50 was 0.97 µM in the experiment with MALME-3M melanoma, 0.873 µM in the experiment with TK-10 renal and 0.122 µM in the experiment with K-562 leukemia. In addition, the TGI in the experiment on SF-295 CNS was determined as 1.6 µM; with HCT-15 colon, 13.2 µM; in the experiment with IGROV1 ovarian it was 1.39 µM; with OVCAR-8 ovarian, 2.28 µM; in the experiment on U251 CNS, 1.33 µM; in the experiment on SK-MEL-5 melanoma, 1.59 µM. For the same compound, the TGI with MALME-3M melanoma was determined as 2.06 µM; with TK-10 renal it was 2.13 µM; in the experiment with K-562 leukemia, 0.361 µM.
On to `CN(C)/C=C/c1nnc([N+](=O)[O-])s1`, for which the TGI in the experiment on SF-295 CNS is 39.4 µM; in the experiment on HCT-15 colon it was 32.2 µM; in the experiment on OVCAR-8 ovarian, 53.3 µM; in the experiment on U251 CNS, 51.8 µM; in the experiment with SK-MEL-5 melanoma, 24.3 µM; with MALME-3M melanoma it was 14.6 µM. The same compound had a TGI with TK-10 renal of 58.5 µM.
Consider `O=C(CC(=O)CC(O)(C(F)(F)F)C(F)(F)F)CC(O)(C(F)(F)F)C(F)(F)F`, for which the TGI in the experiment with SF-295 CNS, with HCT-15 colon, in the experiment with IGROV1 ovarian, with OVCAR-8 ovarian, in the experiment with U251 CNS and with SK-MEL-5 melanoma was above 10 µM throughout. Moreover, the concentration for total growth inhibition (TGI) in the experiment on MALME-3M melanoma, in the experiment with TK-10 renal and in the experiment on K-562 leukemia was above 10 µM throughout.
In the case of `CNS(=O)(=O)NN(C)S(=O)(=O)c1ccc(F)cc1`, the TGI with SF-295 CNS, in the experiment with HCT-15 colon, in the experiment on IGROV1 ovarian, in the experiment with OVCAR-8 ovarian, in the experiment with U251 CNS and in the experiment with SK-MEL-5 melanoma was above 100 µM each time. Also, the TGI in the experiment with MALME-3M melanoma, in the experiment with TK-10 renal and with K-562 leukemia was above 100 µM in each case.
As to `COc1ccc(-c2ccc(/C=N/n3c(COc4ccc(Cl)cc4Cl)n[nH]c3=S)o2)c([N+](=O)[O-])c1`, the GI50 in the experiment on SF-295 CNS is 18 µM; in the experiment with HCT-15 colon, 28.6 µM; with IGROV1 ovarian, 38.7 µM; in the experiment on OVCAR-8 ovarian, 29.7 µM; in the experiment with U251 CNS, 22 µM; in the experiment with MALME-3M melanoma it was 19.9 µM. For the same compound, the values for the GI50 in the experiment on TK-10 renal and with K-562 leukemia were 16.8 µM and 19.3 µM, respectively. Also, the TGI is 36.5 µM in the experiment with SF-295 CNS; above 100 µM with HCT-15 colon; above 100 µM with IGROV1 ovarian; above 100 µM with OVCAR-8 ovarian; above 100 µM in the experiment with U251 CNS; 45.1 µM with MALME-3M melanoma. Further, the values for the TGI with TK-10 renal and in the experiment with K-562 leukemia were 49.2 µM and 47.4 µM, respectively.
Turning to `CCCc1[nH]nc(CCC(=O)N(Cc2ccccc2)Cc2ccccc2)c1CC`, the TGI in the experiment on SF-295 CNS, with HCT-15 colon, in the experiment with IGROV1 ovarian, in the experiment on OVCAR-8 ovarian, in the experiment on SK-MEL-5 melanoma and in the experiment on MALME-3M melanoma was above 100 µM in each case. The total growth inhibition concentration (TGI) in the experiment on TK-10 renal and in the experiment with K-562 leukemia was above 100 µM each time.
On to `CC1=NCCc2c1[nH]c1cc(O)ccc21`, for which the TGI in the experiment on SF-295 CNS, in the experiment on HCT-15 colon, in the experiment with IGROV1 ovarian, in the experiment on OVCAR-8 ovarian, in the experiment with SK-MEL-5 melanoma and in the experiment on MALME-3M melanoma was above 100 µM throughout. Besides, the total growth inhibition concentration (TGI) in the experiment on TK-10 renal and with K-562 leukemia was above 100 µM throughout.

(Values after PubChem BioAssay (NCI).)
